# Measurements: PubChem BioAssay (NCI)
#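 Step 1: Grow cells in 96-well plates. Step 2: Expose to compound for 48 hours at 5 concentrations. Step 3: Interpolate endpoints linearly; if unreached, use highest concentration. Abbreviation: GI50, concentration required for 50% inhibition of growth. Definition used: TGI = concentration required for complete inhibition of growth.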
# Assays:
# Test in all cases: inhibition of tumour cell growth, NCI panel, 48 h
# 786-0 renal = tested on: 786-0 renal
# A498 renal = tested on: A498 renal
# A549 NSCLC = tested on: A549 NSCLC
# ACHN renal = tested on: ACHN renal
# BT-549 breast = tested on: BT-549 breast
# CAKI-1 renal = tested on: CAKI-1 renal
# CCRF-CEM leukemia = tested on: CCRF-CEM leukemia
# COLO 205 colon = tested on: COLO 205 colon
# DU-145 prostate = tested on: DU-145 prostate
# EKVX NSCLC = tested on: EKVX NSCLC
# HCC-2998 colon = tested on: HCC-2998 colon
# HCT-15 colon = tested on: HCT-15 colon
# HL-60(TB) leukemia = tested on: HL-60(TB) leukemia
# HOP-62 NSCLC = tested on: HOP-62 NSCLC
# HOP-92 NSCLC = tested on: HOP-92 NSCLC
# HS 578T breast = tested on: HS 578T breast
# HT29 colon = tested on: HT29 colon
# IGROV1 ovarian = tested on: IGROV1 ovarian
# K-562 leukemia = tested on: K-562 leukemia
# KM12 colon = tested on: KM12 colon
# LOX IMVI melanoma = tested on: LOX IMVI melanoma
# M14 melanoma = tested on: M14 melanoma
# MALME-3M melanoma = tested on: MALME-3M melanoma
# MCF7 breast = tested on: MCF7 breast
# MDA-MB-231 breast = tested on: MDA-MB-231 breast
# MDA-MB-435 = tested on: MDA-MB-435
# MDA-MB-468 breast = tested on: MDA-MB-468 breast
# MOLT-4 leukemia = tested on: MOLT-4 leukemia
# NCI-H226 lung = tested on: NCI-H226 lung
# NCI-H23 lung = tested on: NCI-H23 lung
# NCI-H460 lung = tested on: NCI-H460 lung
# NCI-H522 lung = tested on: NCI-H522 lung
# NCI/ADR-RES ovarian = tested on: NCI/ADR-RES ovarian
# OVCAR-3 ovarian = tested on: OVCAR-3 ovarian
# OVCAR-4 ovarian = tested on: OVCAR-4 ovarian
# OVCAR-5 ovarian = tested on: OVCAR-5 ovarian
# OVCAR-8 ovarian = tested on: OVCAR-8 ovarian
# PC-3 prostate = tested on: PC-3 prostate
# RPMI-8226 leukemia = tested on: RPMI-8226 leukemia
# RXF 393 renal = tested on: RXF 393 renal
# SF-268 CNS = tested on: SF-268 CNS
# SF-295 CNS = tested on: SF-295 CNS
# SF-539 CNS = tested on: SF-539 CNS
# SK-MEL-28 melanoma = tested on: SK-MEL-28 melanoma
# SK-MEL-5 melanoma = tested on: SK-MEL-5 melanoma
# SK-OV-3 ovarian = tested on: SK-OV-3 ovarian
# SN12C renal = tested on: SN12C renal
# SNB-19 CNS = tested on: SNB-19 CNS
# SR leukemia = tested on: SR leukemia
# SW-620 colon = tested on: SW-620 colon
# T-47D breast = tested on: T-47D breast
# TK-10 renal = tested on: TK-10 renal
# U251 CNS = tested on: U251 CNS
# UACC-257 melanoma = tested on: UACC-257 melanoma
# UACC-62 melanoma = tested on: UACC-62 melanoma
# UO-31 renal = tested on: UO-31 renal
structure (smiles),measurement,setting,value
COc1ccc2nc(Cl)c(-c3cc(-c4ccccc4)nc(N)n3)cc2c1,GI50,786-0 renal,1.45 µM
same,TGI,786-0 renal,4.36 µM
same,GI50,A498 renal,25.9 µM
same,TGI,A498 renal,> 100 µM
same,GI50,A549 NSCLC,21.5 µM
same,TGI,A549 NSCLC,> 100 µM
same,GI50,ACHN renal,10.6 µM
same,TGI,ACHN renal,30.8 µM
same,GI50,BT-549 breast,1.54 µM
same,TGI,BT-549 breast,3.32 µM
same,GI50,CAKI-1 renal,20.5 µM
same,TGI,CAKI-1 renal,71.4 µM
same,GI50,CCRF-CEM leukemia,2.58 µM
same,TGI,CCRF-CEM leukemia,> 100 µM
same,GI50,COLO 205 colon,10.9 µM
same,TGI,COLO 205 colon,25.8 µM
same,GI50,DU-145 prostate,4.03 µM
same,TGI,DU-145 prostate,> 100 µM
same,GI50,EKVX NSCLC,16.9 µM
same,TGI,EKVX NSCLC,72.2 µM
same,GI50,HCC-2998 colon,10.6 µM
same,TGI,HCC-2998 colon,22.5 µM
same,GI50,HCT-15 colon,2.67 µM
same,TGI,HCT-15 colon,8.1 µM
same,GI50,HL-60(TB) leukemia,1.55 µM
same,TGI,HL-60(TB) leukemia,> 100 µM
same,GI50,HOP-62 NSCLC,7.47 µM
same,TGI,HOP-62 NSCLC,31.1 µM
same,GI50,HOP-92 NSCLC,11.3 µM
same,TGI,HOP-92 NSCLC,62 µM
same,GI50,HS 578T breast,20.8 µM
same,TGI,HS 578T breast,> 100 µM
same,GI50,HT29 colon,5.11 µM
same,TGI,HT29 colon,18.7 µM
same,GI50,IGROV1 ovarian,8.04 µM
same,TGI,IGROV1 ovarian,23.7 µM
same,GI50,K-562 leukemia,3.21 µM
same,TGI,K-562 leukemia,> 100 µM
same,GI50,KM12 colon,3.38 µM
same,TGI,KM12 colon,12.6 µM
same,GI50,LOX IMVI melanoma,1.92 µM
same,TGI,LOX IMVI melanoma,4.23 µM
same,GI50,M14 melanoma,4.33 µM
same,TGI,M14 melanoma,25.9 µM
same,GI50,MALME-3M melanoma,12.2 µM
same,TGI,MALME-3M melanoma,27.4 µM
same,GI50,MCF7 breast,2.82 µM
same,TGI,MCF7 breast,12.8 µM
same,GI50,MDA-MB-231 breast,6.97 µM
same,TGI,MDA-MB-231 breast,38.8 µM
same,GI50,MDA-MB-435,12.8 µM
same,TGI,MDA-MB-435,33 µM
same,GI50,MDA-MB-468 breast,4 µM
same,TGI,MDA-MB-468 breast,16.5 µM
same,GI50,MOLT-4 leukemia,1.74 µM
same,TGI,MOLT-4 leukemia,> 100 µM
same,GI50,NCI-H226 lung,7.23 µM
same,TGI,NCI-H226 lung,53.9 µM
same,GI50,NCI-H23 lung,6.53 µM
same,TGI,NCI-H23 lung,23.4 µM
same,GI50,NCI-H460 lung,3.58 µM
same,TGI,NCI-H460 lung,13.5 µM
same,GI50,NCI-H522 lung,11.7 µM
same,TGI,NCI-H522 lung,27.4 µM
same,GI50,NCI/ADR-RES ovarian,4.77 µM
same,TGI,NCI/ADR-RES ovarian,36 µM
same,GI50,OVCAR-3 ovarian,3.71 µM
same,TGI,OVCAR-3 ovarian,14.5 µM
same,GI50,OVCAR-4 ovarian,22.3 µM
same,TGI,OVCAR-4 ovarian,> 100 µM
same,GI50,OVCAR-5 ovarian,6.61 µM
same,TGI,OVCAR-5 ovarian,29.1 µM
same,GI50,OVCAR-8 ovarian,3.37 µM
same,TGI,OVCAR-8 ovarian,18.5 µM
same,GI50,PC-3 prostate,5.79 µM
same,TGI,PC-3 prostate,> 100 µM
same,GI50,RPMI-8226 leukemia,3.31 µM
same,TGI,RPMI-8226 leukemia,> 100 µM
same,GI50,RXF 393 renal,3.51 µM
same,TGI,RXF 393 renal,13.7 µM
same,GI50,SF-268 CNS,28.1 µM
same,TGI,SF-268 CNS,> 100 µM
same,GI50,SF-295 CNS,11.4 µM
same,TGI,SF-295 CNS,36.1 µM
same,GI50,SF-539 CNS,1.89 µM
same,TGI,SF-539 CNS,3.92 µM
same,GI50,SK-MEL-28 melanoma,14.6 µM
same,TGI,SK-MEL-28 melanoma,33.8 µM
same,GI50,SK-MEL-5 melanoma,12.2 µM
same,TGI,SK-MEL-5 melanoma,24.6 µM
same,GI50,SK-OV-3 ovarian,39.7 µM
same,TGI,SK-OV-3 ovarian,> 100 µM
same,GI50,SN12C renal,4.71 µM
same,TGI,SN12C renal,19.2 µM
same,GI50,SNB-19 CNS,7.62 µM
same,TGI,SNB-19 CNS,23.5 µM
same,GI50,SR leukemia,0.605 µM
same,TGI,SR leukemia,> 100 µM
same,GI50,SW-620 colon,2.8 µM
same,TGI,SW-620 colon,8.76 µM
same,GI50,T-47D breast,7.94 µM
same,TGI,T-47D breast,> 100 µM
same,GI50,TK-10 renal,22.1 µM
same,TGI,TK-10 renal,90.2 µM
same,GI50,U251 CNS,3.26 µM
same,TGI,U251 CNS,13.2 µM
same,GI50,UACC-257 melanoma,19 µM
same,TGI,UACC-257 melanoma,66.5 µM
same,GI50,UACC-62 melanoma,11 µM
same,TGI,UACC-62 melanoma,24 µM
same,GI50,UO-31 renal,4.3 µM
same,TGI,UO-31 renal,17.6 µM
